This experiment has as its target Proprotein convertase subtilisin/kexin type 9 (Homo sapiens, UniProt Q8NBP7). Kind of experiment: Inhibition of human C-terminal V5 epitope tagged PCSK9 by luciferase reporter assay. On the technique in general: A reporter such as luciferase makes a cellular process visible.
Usually IC50 stands for the point on the concentration scale where inhibition reaches its midpoint. The compound `O=C(c1ccc(-n2nnc3ccccc32)cc1)N(c1ncccc1Cl)[C@@H]1CCCNC1` yielded an IC50 of 300 nM.

`COc1ccc(CCC(=O)N(c2nccc3ccccc23)[C@@H]2CCCNC2)cc1` gave a half-maximal inhibitory concentration (IC50) of 4500 nM.

For `O=C(c1ccc(-c2cnn3cccnc23)cc1)N(c1ncccc1Cl)[C@@H]1CCCNC1` [US9227956, 2], it took 300 nM to reach half-maximal inhibition (IC50).

Source of the values: BindingDB's records for PubMed 33592144 (Merck, 2021).
